Test results as given in patent US20140262287A1, “ENVIRONMENTALLY FRIENDLY QUATERNARY SALTS OF AMINES AND THEIR USE AS TEMPORARY AND/OR PERMANENT CLAY STABILIZERS AND METHODS FOR MAKING AND USING SAME” (CLEARWATER INTERNATIONAL, LLC, priority 2013, published 2014).

Legend:
[1] = Linear Swell after 23 hours; 6000 ppm; Bentonite pellet
Experimental: The Linear Swell Meter was OFITE 115V Dynamic Linear Swell Meter Model #150-80. 14 g of Bentonite was added to a pelletizercompactor and 10,000 psi pressure was applied for 30 minutes. The pellet was removed from the compactor. Ensure all components of the Linear Swell Meter are clean: transfer stand, cap for wafer tube, bottom plate, magnetic stir bar, Teflon washer, and cup. With both the screens in the linear swell meter cell, the swell meter was zeroed out by clicking on the specific cell(s) to be zeroed out and clicked “apply”. One of the screens from the cell was removed and the pellet was added on top of the other screen. The other screen was put on top of the pellet. The transfer stand was gently placed on top of the pellet. The cell was placed on the magnetic stir plate underneath the linear variable differential transformer (LVDT) to make sure that the spindle was directly centered on top of the transfer stand. The fluid to be tested was poured through the hole on the cap for the wafer tube, the box was checked to start the cell and “apply” was clicked. Doing this will start the test for the specific cell.

[2] = Clay stabilization test (water separation from 1% clay solution); conditions: dosage 0.5 (wt. %/100 mL); 60 minutes; 100 mL of 1% clay solution; (Top)/(Middle) printed in cell
Experimental: (§1) Clay Solution Preparation
To make 100 mL of a clay solution, measure 1 g of Cream Bentonite Clay or Weatherford Bentonite Clay material. Add 99 g of distilled water and shake bottle until all the clay is dissolved.
Measure 100 ml of clay solution in a graduated cylinder. Shake 10 times. Record separation time and clay precipitation.
Measure 100 mL of clay solution in a graduated cylinder and add 0.5 mL of the desired clay stabilizer. Shake 10 times. Record separation time and clay coagulation. Record clay deposition, swelling and water release.

[3] = Capillary suction timer clay stabilization test; conditions: 2 g Bentonite in 100 g solution
Experimental: A rock sample was placed in a Gyral Grinder and grinding of the rock sample was begun. The rock sample was ground for 1 hour using a timer. The ground rock sample was placed into a 200-mesh sieve. The aggregate that passed through the sieve was placed in a pan for testing and placed to the side.
Using a 100 mL volumetric flask, a solution was prepared that will be used to mix with the rock sample. At least one solution should be prepared as the sample with straight tap water will be used as a reference blank. 100 g of solution was added to a 250 mL beaker equipped with a magnetic stir bar. A specified amount of each shale inhibitor was added to the beaker. The beaker was placed on stir plate and stirring was begun at a speed at which a vortex reaches the bottom of the beaker. 2 g of the untreated Bentonite sample was added and a timer was set for 5 minutes. After 5 minutes, the stir plate was turned off, the solution was poured into a 100 mL graduated cylinder, and a timer was set for 15 minutes. After 15 minutes, the mixture was poured back into the beaker, the beaker was placed on the magnetic stir plate and stirring was restarted on the plate. Wait until the vortex returned and the clay had become dispersed.
A Venture Innovations capillary suction timer (CST) from Venture Chemicals, Inc. in Lafayette, La. was used in the tests. Before each test, the test head, filter paper, and stainless steel funnel were cleaned and dried. Make sure the cable from the test head was plugged into the control box and the reading on the control box display was reset to zero. A piece of 7×9 cm CST filter paper from Venture Innovations Inc. (part no. IFP-9053) was placed on the test head with the stainless steel probes facing down. The stainless steel funnel was fitted into the test head.
Using a 5-mL syringe, 5-mL of sample was withdrawn from the vortex. Consecutive samples were removed from the same position in the vortex, where the previous sample was taken. A 5 mL sample was charged into the stainless steel funnel. The 5 mL sample charge was repeated twice more. Instrument started automatically when a beep sounds from the control box. When this beep sounded, the timer started. […]

[4] = tested on: Fathead Minnow (pimephales promelas); assay: Acute toxicity minnow survival test; type: in vivo; conditions: for LC50: acute toxicity survival, Examples 4 and 5 range-finding and definitive test, TMAC and Example 3 range-finding test only; for toxicity to minnows compared with TMAC / prior art: comparison in words, data of Table II
Experimental: As a consequence, the “definitive” test gave a more precise LC50 value. LC50 was determined using a log-normal transformation coupled with linear regression between the bracketing no observed effect concentration (NOEC) and lowest observed effect concentration (LOEC). Both the range finding and definitive tests were run on Example 4 and Example 5. Only the ranging finding test was run for TMAC and Example 3.

[5] = Water release clay stabilization test; set-up: unit not given here; conditions: 100 mL of 1 wt. % Wyoming Bentonite clay solution
Experimental: as §1
To make 1 wt. % clay solution, 23 g of Wyoming Bentonite Clay and 2277 g of distilled water were added to a bottle and shaken until all the clay was dissolved. […]
Measure 100 mL of clay solution into 6 graduated cylinders. […] The addition of the clay stabilizers at 0.1 mL, 0.2 mL, 0.4 mL, 0.6 mL, 0.8 mL, and 1.0 mL in 100 mL of a clay solution corresponds to 1, 2, 4, 6, 8 and 10 Gallons per Thousand (or gpt). Invert the cylinders 20 times. Start timer and record separation time and clay coagulation. Record clay deposition, swelling and water release.

Row | Structure (SMILES) | % Swell [1] [%] | Final Water (mL) [2] | CST Time ([3]; CST concentration 4000 ppm) [s] | LC50 [4] [µg/mL] | toxicity to minnows compared with TMAC / prior art [4] | WR (water release at 60 minutes) 2.0 gpt [5] | WR (water release at 60 minutes) 4.0 gpt [5] | WR (water release at 60 minutes) 6.0 gpt [5] | WR (water release at 60 minutes) 8.0 gpt [5] | WR (water release at 60 minutes) 10.0 gpt [5] | CST Time ([3]; CST concentration 5000 ppm) [s] | CST Time ([3]; CST concentration 6000 ppm) [s]
1 | C[N+](C)(C)CCO.[Cl-] [Choline Chloride, reference compound] | 88.9 | 27 mL/60 minutes (Top) |  |  |  |  |  |  |  |  |  | 
2 | OCC[N+](CCO)(CCO)Cc1ccccc1.[Cl-] [Example 4] |  |  | 18 | 3160 | much less toxic than TMAC | 27 | 33 | 34 | 33 | 32 |  | 
3 | CCOS(=O)(=O)[O-].CC[N+](CCO)(CCO)CCO [Example 5] |  | 20 mL/60 minutes (Middle) | 90 | 6030 | much less toxic than TMAC | 2 | 9 | 22 | 26 | 31 | 68 | 92
4 | C[N+](C)(C)C.[Cl-] [tetramethylammonium chloride, reference compound] |  |  |  | 737 |  |  |  |  |  |  |  | 
